Like-named read-outs stand apart in the source and are kept apart here.
Tests used:
[1] = system: human naïve CFSE+ CD8+ T cells; experiment: Naïve CD8+ T-cell differentiation in REP: skewing between TSCM-like and dysfunctional phenotype (mass cytometry, force-directed graph, DPT); conditions: for CD45RA^Low CD25^High (%) / CD45RA^High CD25^Low (%): gated on CFSE^+CD8^+T cells; for CD45RA^Low CD25^High (%): path toward dysfunctional phenotype; for CD45RA^High CD25^Low (%): path towards TSCM-like phenotype; for CD45RA High CD25 Low (%) / CD45RA Low CD25 High (%): gated on CFSE+CD8+ T cells
pRPS6 = conditions: gated on CFSE+CD8+ T cells
Text: (§1) Mass cytometry data were normalized and debarcoded.

[2] = system: human naïve CFSE+ CD8+ T cells; conditions: for CFSE^+ CD8^+ T cells (%)^*: live and non-apoptotic gates not applied
Text: Peripheral blood mononuclear cells (PBMCs) were isolated from Trima Accel leukocyte reduction system (LRS) chambers (Terumo BCT, Lakewood, CO) of de-identified healthy blood donors (Stanford Blood Center, Palo Alto, CA) using Ficoll-Paque Plus (GE Healthcare, Chicago, IL, USA) density gradient centrifugation according to manufacturer's instructions. For long-term storage, PBMCs were resuspended in FBS with 10% DMSO and stored in liquid nitrogen at density 1-5×10^7 cells/mL. Cryopreserved PBMCs were thawed into cell culture medium (CCM; RPMI 1640 containing 10% FBS, 1× L-glutamine, and 1× penicillin/streptomycin; Thermo Fisher Scientific Waltham, MA, USA) supplemented with 25 U/mL benzonase (SIGMA-ALDRICH®, St. Louis, MO, USA). Cells were then pelleted for 5 minutes at 250×g, resuspended in 10 mL CCM, rested at 37° C., 5% CO2 for 60 minutes, filtered through a 40 μm strainer, and counted. Where indicated, naïve T cells were enriched using Naïve Pan T Cell Isolation Kit (Miltenyi Biotec #130-097-095, Bergisch Gladbach, Germany) according to manufacturer's instructions.
Unless otherwise noted, carboxyfluorescein succinimidyl ester (CFSE) labeling was performed as described by Quah and Parish16, 17. Briefly, 50 μg carboxyfluorescein diacetate succinimidyl ester (CFDA-SE) was reconstituted in 18 μL DMSO (CellTrace CFSE Cell Proliferation Kit, Thermo Fisher Scientific #C34554) to create a 5 mM stock immediately prior to labeling. Cells were resuspended in 1 mL warm CCM and transferred into a new 15 mL Falcon tube lying horizontally. A drop containing 110 μL warm PBS was placed on a side of the tube, and 17.6 μL of 5 mM CFDA-SE was diluted into the drop. The tube was then quickly capped and turned upside right while being vortexed gently, yielding a final concentration of 80 μM CFDA-SE. Cells were incubated for 5 minutes at room temperature, quenched by adding 9 mL warm CCM, and washed twice with 10 mL warm CCM. When only naïve T cells were labeled with CFSE, they were combined with the CFSE-negative PBMC fraction devoid of naïve T cells after labeling to restore original cell proportions. All centrifuging steps for live cells were done for 5 minutes at 250 g, 37° C. CFSE and labeled cells were protected from light throughout the experiment. During protocol optimization, the above labeling protocol for 0.1-10×10^7 cells and CFSE concentrations in range of 0.2 μM to 320 μM was tested. Long-term cell viability and proliferation were assessed. Manufacturer's labeling protocol for CFSE concentrations 0.2 μM to 20 μM, as well as other CFSE suppliers (BIOLEGEND® #422701, San Diego, CA, USA) were also tested.
Samples were processed as previously known in the art. To stain cells for viability, cisplatin (SIGMA-ALDRICH® #P4394) was reconstituted to 100 mM in DMSO and incubated at 37° C. for 3 days to prepare a stock solution, which was then stored in aliquots at −20° C. Cell pellets were resuspended in 1 mL PBS containing 0.5 μM cisplatin, gently vortexed, incubated 5 minutes at room temperature, quenched with 3 mL CCM, pelleted, and resuspended in 1 mL CCM. […] All centrifuging steps for fixed cells were done for 5 minutes at 600×g, 4° C. Cell pellets were optionally stored at −80° C.
as §1

[3] = REP day 3, among CD45RA^High CD25^Low CFSE^+CD8^+T cells
[4] = REP day 3, among CD45RA^Low CD25^High CFSE^+CD8^+T cells
[5] = REP day 4, among CD45RA^High CD25^Low CFSE^+CD8^+T cells
[6] = REP day 4, among CD45RA^Low CD25^High CFSE^+CD8^+T cells
[7] = REP day 5, among CD45RA^High CD25^Low CFSE^+CD8^+T cells
[8] = REP day 5, among CD45RA^Low CD25^High CFSE^+CD8^+T cells
[9] = REP day 7, among CD45RA^High CD25^Low CFSE^+CD8^+T cells
[10] = REP day 7, among CD45RA^Low CD25^High CFSE^+CD8^+T cells
[11] = in CD45RA High CD25 Low subset of CFSE+CD8+ T cells, REP day 3
[12] = in CD45RA High CD25 Low subset of CFSE+CD8+ T cells, REP day 4
[13] = in CD45RA High CD25 Low subset of CFSE+CD8+ T cells, REP day 5
[14] = in CD45RA High CD25 Low subset of CFSE+CD8+ T cells, REP day 7
[15] = in CD45RA Low CD25 High subset of CFSE+CD8+ T cells, REP day 3
[16] = in CD45RA Low CD25 High subset of CFSE+CD8+ T cells, REP day 4
[17] = in CD45RA Low CD25 High subset of CFSE+CD8+ T cells, REP day 5
[18] = in CD45RA Low CD25 High subset of CFSE+CD8+ T cells, REP day 7

CO[C@H]1C[C@@H]2CC[C@@H](C)[C@@](O)(O2)C(=O)C(=O)N2CCCC[C@H]2C(=O)O[C@H]([C@H](C)C[C@@H]2CC[C@@H](O)[C@H](OC)C2)CC(=O)[C@H](C)/C=C(\C)[C@@H](O)[C@@H](OC)C(=O)[C@H](C)C[C@H](C)/C=C/C=C/C=C/1C [Rapamycin, rapamycin]
CD45RA^Low CD25^High (%) ([1]; REP day 3): 27.34%
CD45RA^High CD25^Low (%) ([1]; REP day 3): 16.11%
CD45RA^Low CD25^High (%) ([1]; REP day 4): 30.19%
CD45RA^High CD25^Low (%) ([1]; REP day 4): 16.03%
CD45RA^Low CD25^High (%) ([1]; REP day 5): 43.80%
CD45RA^High CD25^Low (%) ([1]; REP day 5): 8.87%
CD45RA^Low CD25^High (%) ([1]; REP day 7): 21.79%
CD45RA^High CD25^Low (%) ([1]; REP day 7): 9.00%
CD45RA High CD25 Low (%) ([1]; REP day 3): 16.11%
CD45RA Low CD25 High (%) ([1]; REP day 3): 27.34%
CD45RA High CD25 Low (%) ([1]; REP day 4): 16.03%
CD45RA Low CD25 High (%) ([1]; REP day 4): 30.19%
CD45RA High CD25 Low (%) ([1]; REP day 5): 8.87%
CD45RA Low CD25 High (%) ([1]; REP day 5): 43.80%
CD45RA High CD25 Low (%) ([1]; REP day 7): 9.00%
CD45RA Low CD25 High (%) ([1]; REP day 7): 21.79%
pRPS6+ (%) (first column, c2) (pRPS6; REP day 3): 99.49%
pRPS6+ (%) (second column, c5) (pRPS6; REP day 3): 0.51%
pRPS6+ (%) (first column, c2) (pRPS6; REP day 4): 99.15%
pRPS6+ (%) (second column, c5) (pRPS6; REP day 4): 0.85%
pRPS6+ (%) (first column, c2) (pRPS6; REP day 5): 99.28%
pRPS6+ (%) (second column, c5) (pRPS6; REP day 5): 0.72%
pRPS6+ (%) (first column, c2) (pRPS6; REP day 7): 99.44%
pRPS6+ (%) (second column, c5) (pRPS6; REP day 7): 0.56%
Apoptotic cells (% cPARP+ cells in CFSE+ CD8+ T cells) ([2]; REP day 3): 0.43%
Apoptotic cells (% cPARP^+ cells in CFSE^+ CD8^+T cells) ([2]; REP day 3): 0.43%
CFSE+ CD8+ T cells (%) ([2]; REP day 3): 2.14%
Dead cells (1% cisplatin+ cells in CFSE+ CD8+ T cells) ([2]; REP day 3): 0.26%
Dead cells (1% cisplatin^+ cells in CFSE^+ CD8^+ T cells) ([2]; REP day 3): 0.26%
Total CFSE+ CD8+ T cells ([2]; REP day 3): 0.14
Total CFSE^+ CD8^+ T cells ([2]; REP day 3): 0.14
Total cells (×10^6) ([2]; REP day 3): 6.48 ×10^6
Apoptotic Cell (%) [2, 3]: 0.53%
Dead cells (%) [2, 3]: 0.00%
Apoptotic Cells (%) [2, 4]: 0.31%
Dead cells (%) [2, 4]: 0.63%
CFSE^+ CD8^+ T cells (%)^* ([2]; REP day 3): 2.14%
Apoptotic cells (% cPARP+ cells in CFSE+ CD8+ T cells) ([2]; REP day 4): 0.85%
Apoptotic cells (% cPARP^+ cells in CFSE^+ CD8^+T cells) ([2]; REP day 4): 0.85%
CFSE+ CD8+ T cells (%) ([2]; REP day 4): 3.07%
Dead cells (1% cisplatin+ cells in CFSE+ CD8+ T cells) ([2]; REP day 4): 0.38%
Dead cells (1% cisplatin^+ cells in CFSE^+ CD8^+ T cells) ([2]; REP day 4): 0.38%
Total CFSE+ CD8+ T cells ([2]; REP day 4): 0.31
Total CFSE^+ CD8^+ T cells ([2]; REP day 4): 0.31
Total cells (×10^6) ([2]; REP day 4): 9.96 ×10^6
Apoptotic Cell (%) [2, 5]: 0.59%
Dead cells (%) [2, 5]: 0.39%
Apoptotic Cells (%) [2, 6]: 0.84%
Dead cells (%) [2, 6]: 0.21%
CFSE^+ CD8^+ T cells (%)^* ([2]; REP day 4): 3.07%
Apoptotic cells (% cPARP+ cells in CFSE+ CD8+ T cells) ([2]; REP day 5): 1.07%
Apoptotic cells (% cPARP^+ cells in CFSE^+ CD8^+T cells) ([2]; REP day 5): 1.07%
CFSE+ CD8+ T cells (%) ([2]; REP day 5): 5.14%
Dead cells (1% cisplatin+ cells in CFSE+ CD8+ T cells) ([2]; REP day 5): 0.21%
Dead cells (1% cisplatin^+ cells in CFSE^+ CD8^+ T cells) ([2]; REP day 5): 0.21%
Total CFSE+ CD8+ T cells ([2]; REP day 5): 0.71
Total CFSE^+ CD8^+ T cells ([2]; REP day 5): 0.71
Total cells (×10^6) ([2]; REP day 5): 13.91 ×10^6
Apoptotic Cell (%) [2, 7]: 2.33%
Dead cells (%) [2, 7]: 0.00%
Apoptotic Cells (%) [2, 8]: 0.79%
Dead cells (%) [2, 8]: 0.24%
CFSE^+ CD8^+ T cells (%)^* ([2]; REP day 5): 5.14%
Apoptotic cells (% cPARP+ cells in CFSE+ CD8+ T cells) ([2]; REP day 7): 2.16%
Apoptotic cells (% cPARP^+ cells in CFSE^+ CD8^+T cells) ([2]; REP day 7): 2.16%
CFSE+ CD8+ T cells (%) ([2]; REP day 7): 6.49%
Dead cells (1% cisplatin+ cells in CFSE+ CD8+ T cells) ([2]; REP day 7): 1.13%
Dead cells (1% cisplatin^+ cells in CFSE^+ CD8^+ T cells) ([2]; REP day 7): 1.13%
Total CFSE+ CD8+ T cells ([2]; REP day 7): 1.82
Total CFSE^+ CD8^+ T cells ([2]; REP day 7): 1.82
Total cells (×10^6) ([2]; REP day 7): 28.03 ×10^6
Apoptotic Cell (%) [2, 9]: 3.47%
Dead cells (%) [2, 9]: 0.69%
Apoptotic Cells (%) [2, 10]: 1.15%
Dead cells (%) [2, 10]: 0.72%
CFSE^+ CD8^+ T cells (%)^* ([2]; REP day 7): 6.49%
Apoptotic Cell (%) [2, 11]: 0.53%
Dead cells (%) [2, 11]: 0.00%
Apoptotic Cell (%) [2, 12]: 0.59%
Dead cells (%) [2, 12]: 0.39%
Apoptotic Cell (%) [2, 13]: 2.33%
Dead cells (%) [2, 13]: 0.00%
Apoptotic Cell (%) [2, 14]: 3.47%
Dead cells (%) [2, 14]: 0.69%
Apoptotic Cells (%) [2, 15]: 0.31%
Dead cells (%) [2, 15]: 0.63%
Apoptotic Cells (%) [2, 16]: 0.84%
Dead cells (%) [2, 16]: 0.21%
Apoptotic Cells (%) [2, 17]: 0.79%
Dead cells (%) [2, 17]: 0.24%
Apoptotic Cells (%) [2, 18]: 1.15%
Dead cells (%) [2, 18]: 0.72%

— patent publication US12024716B2, “Compositions and methods of expansion of T cell populations” (THE BOARD OF TRUSTEES OF THE LELAND STANFORD JUNIOR …, priority 2018, dated 2024)
